# Assay results taken from paper PMC7180948, “New Insights into 4-Anilinoquinazolines as Inhibitors of Cardiac Troponin I–Interacting Kinase (TNNi3K)” (Molecules, 2020).
# Experiments:
# Experiment in all cases: biochemical
# Parameters in all cases: KINOMEscan competition binding panel (Eurofins DiscoverX), single concentration, percent inhibition
# Settings in all cases: read-out: 15 at 1 µM % inhibition
# [1] = target: T1, NDR2 (Homo sapiens, UniProt Q9Y2H1)
# T1 construct: gene STK38L
# Outline: (§1)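 Selectivity profile from a KINOMEscan run against >400 human kinases; test concentration 1 µM.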
# [2] = target: T2, RSK1(Kin.Dom.2-C-terminal) (Homo sapiens, UniProt Q15418)
# T2 construct: gene RPS6KA1; Kin.Dom.2-C-terminal
# Outline: as §1
# [3] = target: KIT(D816H) (Homo sapiens, UniProt P10721, D816H)
# Outline: as §1
# [4] = target: T3, VPS34 (Homo sapiens, UniProt Q8NEB9)
# T3 construct: gene PIK3C3
# Outline: as §1
# [5] = target: T4, ABL1(T315I)-phosphorylated (Homo sapiens, UniProt P00519, T315I)
# T4 construct: phosphorylated
# Outline: as §1
# [6] = target: KIT-autoinhibited (Homo sapiens, UniProt P10721)
# Outline: as §1
# [7] = target: TXK (Homo sapiens, UniProt P42681)
# Outline: as §1
# [8] = target: GRK1 (Homo sapiens, UniProt Q15835)
# Outline: as §1
# [9] = target: STK16 (Homo sapiens, UniProt O75716)
# Outline: as §1
# [10] = target: T5, AMPK-alpha1 (Homo sapiens, UniProt Q13131)
# T5 construct: gene PRKAA1
# Outline: as §1
# [11] = target: BRAF(V600E) (Homo sapiens, UniProt P15056, V600E)
# Outline: as §1
# [12] = target: GRK4 (Homo sapiens, UniProt P32298)
# Outline: as §1
# [13] = target: STK39 (Homo sapiens, UniProt Q9UEW8)
# Outline: as §1
# [14] = target: T6, RPS6KA5(Kin.Dom.2-C-terminal) (Homo sapiens, UniProt O75582)
# T6 construct: Kin.Dom.2-C-terminal
# Outline: as §1
# [15] = target: T7, YANK1 (Homo sapiens, UniProt Q8WU08)
# T7 construct: gene STK32A
# Outline: as §1
# [16] = target: EGFR(T790M) (Homo sapiens, UniProt P00533, T790M)
# Outline: as §1
# [17] = target: LCK (Homo sapiens, UniProt P06239)
# Outline: as §1
# [18] = target: LRRK2 (Homo sapiens, UniProt Q5S007)
# Outline: as §1
# [19] = target: PAK1 (Homo sapiens, UniProt Q13153)
# Outline: as §1
# [20] = target: TBK1 (Homo sapiens, UniProt Q9UHD2)
# Outline: as §1
# [21] = target: T8, ABL1(T315I)-nonphosphorylated (Homo sapiens, UniProt P00519, T315I)
# T8 construct: nonphosphorylated
# Outline: as §1
# [22] = target: PLK1 (Homo sapiens, UniProt P53350)
# Outline: as §1
# [23] = target: CSF1R (Homo sapiens, UniProt P07333)
# Outline: as §1
# [24] = target: MYO3A (Homo sapiens, UniProt Q8NEV4)
# Outline: as §1
# Sequence of EGFR(T790M) (P00533 whole entry T790M): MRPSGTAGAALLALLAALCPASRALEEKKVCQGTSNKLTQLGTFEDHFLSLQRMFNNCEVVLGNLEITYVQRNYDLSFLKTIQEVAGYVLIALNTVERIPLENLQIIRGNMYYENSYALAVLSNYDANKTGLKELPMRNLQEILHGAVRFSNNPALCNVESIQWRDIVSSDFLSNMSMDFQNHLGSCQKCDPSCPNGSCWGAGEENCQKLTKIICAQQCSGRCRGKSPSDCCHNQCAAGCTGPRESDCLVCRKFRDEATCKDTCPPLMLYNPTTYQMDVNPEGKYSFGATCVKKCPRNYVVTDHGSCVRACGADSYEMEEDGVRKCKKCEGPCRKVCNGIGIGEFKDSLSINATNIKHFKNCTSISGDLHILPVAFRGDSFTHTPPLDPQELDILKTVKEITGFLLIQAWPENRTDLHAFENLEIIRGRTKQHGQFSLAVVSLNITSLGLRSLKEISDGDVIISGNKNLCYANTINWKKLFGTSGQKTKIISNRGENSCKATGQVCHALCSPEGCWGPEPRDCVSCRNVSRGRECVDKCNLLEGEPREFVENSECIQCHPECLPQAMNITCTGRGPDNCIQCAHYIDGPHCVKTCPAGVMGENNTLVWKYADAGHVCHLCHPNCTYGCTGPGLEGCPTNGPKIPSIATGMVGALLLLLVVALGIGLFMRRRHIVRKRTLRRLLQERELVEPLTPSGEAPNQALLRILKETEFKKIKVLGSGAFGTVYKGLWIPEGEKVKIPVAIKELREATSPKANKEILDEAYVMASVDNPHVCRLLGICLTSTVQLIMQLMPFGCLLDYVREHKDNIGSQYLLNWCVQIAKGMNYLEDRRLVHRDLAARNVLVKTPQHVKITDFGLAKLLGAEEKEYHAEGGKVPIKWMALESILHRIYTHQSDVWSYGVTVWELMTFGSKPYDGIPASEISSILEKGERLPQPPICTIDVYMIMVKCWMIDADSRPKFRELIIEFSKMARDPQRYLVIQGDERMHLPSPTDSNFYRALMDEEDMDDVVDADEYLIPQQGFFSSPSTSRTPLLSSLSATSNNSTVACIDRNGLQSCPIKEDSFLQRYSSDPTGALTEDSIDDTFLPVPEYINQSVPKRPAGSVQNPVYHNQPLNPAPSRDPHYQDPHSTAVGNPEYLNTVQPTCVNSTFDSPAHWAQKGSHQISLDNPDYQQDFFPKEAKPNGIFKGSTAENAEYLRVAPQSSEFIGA
# T7 sequence (Q8WU08 whole entry): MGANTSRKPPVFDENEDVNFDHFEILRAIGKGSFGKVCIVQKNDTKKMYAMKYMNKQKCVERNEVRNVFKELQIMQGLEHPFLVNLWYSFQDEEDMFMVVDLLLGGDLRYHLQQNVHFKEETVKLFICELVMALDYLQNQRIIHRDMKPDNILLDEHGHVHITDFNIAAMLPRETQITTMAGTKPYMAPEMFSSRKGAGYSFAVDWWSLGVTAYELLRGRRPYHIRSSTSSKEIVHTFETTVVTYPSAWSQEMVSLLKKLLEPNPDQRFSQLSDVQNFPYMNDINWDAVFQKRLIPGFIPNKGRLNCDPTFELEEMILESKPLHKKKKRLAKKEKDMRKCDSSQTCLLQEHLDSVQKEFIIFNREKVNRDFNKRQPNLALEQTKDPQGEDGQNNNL
# Sequence of GRK1 (Q15835 whole entry): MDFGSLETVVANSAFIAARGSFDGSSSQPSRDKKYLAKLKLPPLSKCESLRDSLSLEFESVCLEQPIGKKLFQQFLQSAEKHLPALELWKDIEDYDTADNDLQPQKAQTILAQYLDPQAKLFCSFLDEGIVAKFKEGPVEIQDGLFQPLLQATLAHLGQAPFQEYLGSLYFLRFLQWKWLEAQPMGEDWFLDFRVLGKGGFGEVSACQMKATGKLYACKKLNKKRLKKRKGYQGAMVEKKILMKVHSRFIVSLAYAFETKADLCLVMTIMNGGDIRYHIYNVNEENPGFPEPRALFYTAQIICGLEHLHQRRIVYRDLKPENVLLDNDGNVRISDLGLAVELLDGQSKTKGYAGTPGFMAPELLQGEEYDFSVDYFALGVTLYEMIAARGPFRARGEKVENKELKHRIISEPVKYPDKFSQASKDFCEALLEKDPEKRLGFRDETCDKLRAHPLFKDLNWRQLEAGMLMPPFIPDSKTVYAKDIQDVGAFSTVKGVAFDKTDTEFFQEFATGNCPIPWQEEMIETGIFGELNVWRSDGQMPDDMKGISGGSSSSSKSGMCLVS
# T2 sequence (Q15418 whole entry): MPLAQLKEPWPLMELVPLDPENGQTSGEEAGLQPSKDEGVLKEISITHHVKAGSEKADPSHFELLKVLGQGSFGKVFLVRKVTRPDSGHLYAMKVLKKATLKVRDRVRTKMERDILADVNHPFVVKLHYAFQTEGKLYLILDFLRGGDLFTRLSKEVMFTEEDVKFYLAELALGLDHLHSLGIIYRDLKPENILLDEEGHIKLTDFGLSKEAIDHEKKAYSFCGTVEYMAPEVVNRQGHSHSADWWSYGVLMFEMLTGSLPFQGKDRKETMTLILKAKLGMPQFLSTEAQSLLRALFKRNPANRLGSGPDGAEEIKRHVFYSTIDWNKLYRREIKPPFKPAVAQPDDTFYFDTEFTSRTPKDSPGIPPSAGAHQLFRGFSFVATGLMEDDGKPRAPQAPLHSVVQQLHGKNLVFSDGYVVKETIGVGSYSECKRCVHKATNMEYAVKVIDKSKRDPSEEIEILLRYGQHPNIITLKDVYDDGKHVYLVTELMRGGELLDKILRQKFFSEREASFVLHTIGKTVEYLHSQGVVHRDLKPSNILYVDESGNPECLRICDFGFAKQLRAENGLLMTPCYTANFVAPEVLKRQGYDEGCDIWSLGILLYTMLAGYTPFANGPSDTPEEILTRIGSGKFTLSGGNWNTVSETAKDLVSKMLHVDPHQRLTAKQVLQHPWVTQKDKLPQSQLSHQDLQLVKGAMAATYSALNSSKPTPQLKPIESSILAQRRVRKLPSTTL
# Sequence of GRK4 (P32298 whole entry): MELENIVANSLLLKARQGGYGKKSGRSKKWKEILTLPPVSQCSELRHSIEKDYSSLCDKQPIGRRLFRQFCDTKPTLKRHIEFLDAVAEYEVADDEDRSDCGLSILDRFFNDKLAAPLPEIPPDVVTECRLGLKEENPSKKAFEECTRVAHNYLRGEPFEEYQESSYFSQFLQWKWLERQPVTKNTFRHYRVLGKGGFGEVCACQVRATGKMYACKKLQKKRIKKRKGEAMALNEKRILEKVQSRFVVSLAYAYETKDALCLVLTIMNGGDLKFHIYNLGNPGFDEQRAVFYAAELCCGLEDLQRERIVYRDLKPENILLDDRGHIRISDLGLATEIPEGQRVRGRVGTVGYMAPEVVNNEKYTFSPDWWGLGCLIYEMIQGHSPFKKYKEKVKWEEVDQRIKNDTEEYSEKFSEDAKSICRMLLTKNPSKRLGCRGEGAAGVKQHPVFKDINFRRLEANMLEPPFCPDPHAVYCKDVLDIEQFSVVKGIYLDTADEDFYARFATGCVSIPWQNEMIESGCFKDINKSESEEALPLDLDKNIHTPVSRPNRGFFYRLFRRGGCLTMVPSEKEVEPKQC
# T3 sequence (Q8NEB9 whole entry): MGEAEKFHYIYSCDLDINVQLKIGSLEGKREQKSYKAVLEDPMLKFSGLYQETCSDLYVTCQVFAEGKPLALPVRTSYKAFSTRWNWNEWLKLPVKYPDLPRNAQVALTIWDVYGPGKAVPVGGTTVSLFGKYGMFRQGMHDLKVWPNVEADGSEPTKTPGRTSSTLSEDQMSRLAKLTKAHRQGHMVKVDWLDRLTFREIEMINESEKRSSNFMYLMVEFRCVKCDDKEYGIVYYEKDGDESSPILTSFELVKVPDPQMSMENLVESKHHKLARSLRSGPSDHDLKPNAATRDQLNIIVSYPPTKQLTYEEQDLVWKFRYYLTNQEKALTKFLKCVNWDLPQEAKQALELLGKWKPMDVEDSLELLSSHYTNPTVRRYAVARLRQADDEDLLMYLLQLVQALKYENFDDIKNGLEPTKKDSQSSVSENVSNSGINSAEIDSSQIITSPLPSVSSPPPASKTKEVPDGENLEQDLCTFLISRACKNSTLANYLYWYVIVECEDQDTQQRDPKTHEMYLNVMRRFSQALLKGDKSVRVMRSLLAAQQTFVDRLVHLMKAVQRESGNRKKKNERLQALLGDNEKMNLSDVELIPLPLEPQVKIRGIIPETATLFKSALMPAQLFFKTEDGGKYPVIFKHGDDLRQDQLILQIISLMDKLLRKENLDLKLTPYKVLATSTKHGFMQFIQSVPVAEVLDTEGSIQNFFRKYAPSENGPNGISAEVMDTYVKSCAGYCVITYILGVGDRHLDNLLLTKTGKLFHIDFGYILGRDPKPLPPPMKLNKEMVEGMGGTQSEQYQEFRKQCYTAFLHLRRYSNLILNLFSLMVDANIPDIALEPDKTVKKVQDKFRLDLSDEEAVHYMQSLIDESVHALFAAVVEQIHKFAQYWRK
# Sequence of PLK1 (P53350 whole entry): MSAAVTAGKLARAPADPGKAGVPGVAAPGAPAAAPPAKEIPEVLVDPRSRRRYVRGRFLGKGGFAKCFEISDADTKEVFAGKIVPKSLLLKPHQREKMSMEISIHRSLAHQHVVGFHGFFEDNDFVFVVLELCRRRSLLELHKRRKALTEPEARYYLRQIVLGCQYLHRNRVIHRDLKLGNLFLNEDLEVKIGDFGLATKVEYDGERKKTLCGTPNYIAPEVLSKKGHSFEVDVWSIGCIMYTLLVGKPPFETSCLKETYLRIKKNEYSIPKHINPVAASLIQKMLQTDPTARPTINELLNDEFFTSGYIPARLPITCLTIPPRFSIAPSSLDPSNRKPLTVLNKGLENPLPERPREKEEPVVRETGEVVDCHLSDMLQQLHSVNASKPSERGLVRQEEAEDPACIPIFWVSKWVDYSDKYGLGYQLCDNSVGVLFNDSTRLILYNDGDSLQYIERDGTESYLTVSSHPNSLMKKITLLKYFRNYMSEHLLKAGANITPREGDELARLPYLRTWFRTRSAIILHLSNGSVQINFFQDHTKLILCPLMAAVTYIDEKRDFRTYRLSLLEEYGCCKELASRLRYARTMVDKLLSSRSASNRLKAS
smiles,measurement,setting,value
"CNS(=O)(=O)c1ccc(N(C)C)c(Nc2nc(C)nc3cc(OC)c(OC)cc23)c1 [compound 15, 3-((6,7-dimethoxy-2-methylquinazolin-4-yl)amino)-4-(dimethylamino)-N-methylbenzenesulfonamide]",inhibition at 1 µM,[1],6%
same,inhibition at 1 µM,[2],5%
same,inhibition at 1 µM,[3],16%
same,inhibition at 1 µM,[4],25%
same,inhibition at 1 µM,[5],0%
same,inhibition at 1 µM,[6],19%
same,inhibition at 1 µM,[7],5%
same,inhibition at 1 µM,[8],20%
same,inhibition at 1 µM,[9],2%
same,inhibition at 1 µM,[10],1%
same,inhibition at 1 µM,[11],24%
same,inhibition at 1 µM,[12],8%
same,inhibition at 1 µM,[13],2%
same,inhibition at 1 µM,[14],8%
same,inhibition at 1 µM,[15],0%
same,inhibition at 1 µM,[16],25%
same,inhibition at 1 µM,[17],0%
same,inhibition at 1 µM,[18],0%
same,inhibition at 1 µM,[19],1%
same,inhibition at 1 µM,[20],0%
same,inhibition at 1 µM,[21],9%
same,inhibition at 1 µM,[22],0%
same,inhibition at 1 µM,[23],0%
same,inhibition at 1 µM,[24],0%
